Results reported in US11897867B2, “6-phenyl-4,5-dihydropyridazin-3(2H)-one derivatives as PDE3A and PDE3B inhibitors for treating cancer” (Bayer Aktiengesellschaft, priority 2017, dated 2024).

Legend:
[1] = system: HeLa cells (cervical cancer); test: Cell proliferation measurement (Cell Titer Glo), HeLa; type: cell-based; conditions: Homo sapiens, 72 h treatment, read-out: Anti-proliferation IC50 HeLa (Cervical cancer)
Method in brief: (§1)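 Cells (1000/well; 500 for HeLa) plated overnight at 37 °C, then exposed to a ≥10-point compound dilution series for 72 h at 37 °C, DMSO 0.3% final as vehicle. Viability read by CellTiter-Glo luminescence; IC50 from 4-parameter fit against untreated wells.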

SK-MEL-3 (melanoma) = test: Cell proliferation measurement (Cell Titer Glo), SK-MEL-3; type: cell-based; conditions: Homo sapiens, SK-MEL3, SK-MEL-3 cells, 72 h treatment, read-out: Anti-proliferation IC50 SK-MEL-3 (melanoma)
Method in brief: as §1

IGR-37 (melanoma) = test: Cell proliferation measurement (Cell Titer Glo), IGR-37; type: cell-based; conditions: Homo sapiens, IGR-37 cells, 72 h treatment, read-out: Anti-proliferation IC50 IGR-37 (melanoma)
Description: The antiproliferative activity of the compounds of the general formula (I) was examined in vitro in human cancer cells. For this purpose, 1000 cells (or 500 HeLa cells) were plated in 384-well plates with appropriate growth medium and incubated at 37° C. overnight. After 24 h, the cells on the test plate were treated with the compounds of the general formula (I) as and incubated at 37° C. for 72 h. The compounds were added to the cells by means of an HP D300 digital dispenser in a 10 (or more)-step dilution series. As control, the cells were treated with vehicle (DMSO at 0.3% final concentration). After 72 h, the cells were treated with 20 μl/well of 50% CTG solution in PBS (Promega Cell Titer Glo (catalogue #G755B and G756B)) and incubated at room temperature for 10 min, and luminescence was measured by means of a VICTOR V (Perkin Elmer), in order to determine cell viability at the end of treatment. The percentage effect on cell growth and the IC50 derived therefrom were determined for each test substance using the values from untreated wells (=percent viability). The IC50 values were calculated using a 4-parameter fit.

human full length PDE3A = biological target: T1, human full length PDE3A (Homo sapiens, UniProt Q14432); test: PDE3A enzyme inhibition (3H-cAMP Scintillation Proximity Assay); type: biochemical; conditions: PDE3A cell extract from Sf9 cells, 60 min room temperature; read-out: Target IC50 PDE3A IC50
T1 construct: Sf9 cells overexpressing human full length PDE3A; purchased SB Drug Discovery, UK; host or cells: Sf9 cells (cell extract)
Method in brief: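 Sf9 cell extract overexpressing human full-length PDE3A, diluted for linear kinetics (<70% substrate used), in 50 mM Tris/HCl pH 7.5, 8.3 mM MgCl2, 1.7 mM EDTA, 0.2% BSA. [8-3H]cAMP substrate, 60 min at room temperature, yttrium SPA bead read-out; IC50 from sigmoidal curves of % activity.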

human full length PDE3B = biological target: T2, human full length PDE3B (Homo sapiens, UniProt Q13370); test: PDE3B enzyme inhibition (3H-cAMP Scintillation Proximity Assay); type: biochemical; conditions: PDE3B cell extract from Sf9 cells, 60 min room temperature; read-out: Target IC50 PDE3B IC50
T2 construct: Sf9 cells overexpressing human full length PDE3B; purchased SB Drug Discovery, UK; host or cells: Sf9 cells (cell extract)
Method in brief: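 SPA with Sf9 cell extract overexpressing human full-length PDE3B, diluted for linear kinetics and <70% substrate turnover, in 50 mM Tris/HCl pH 7.5, 8.3 mM MgCl2, 1.7 mM EDTA, 0.2% BSA. [8-3H]cAMP substrate, 60 min at room temperature, stopped with yttrium SPA beads. IC50 from sigmoidal fit of % activity vs log concentration.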

T2 sequence (Q13370 whole entry): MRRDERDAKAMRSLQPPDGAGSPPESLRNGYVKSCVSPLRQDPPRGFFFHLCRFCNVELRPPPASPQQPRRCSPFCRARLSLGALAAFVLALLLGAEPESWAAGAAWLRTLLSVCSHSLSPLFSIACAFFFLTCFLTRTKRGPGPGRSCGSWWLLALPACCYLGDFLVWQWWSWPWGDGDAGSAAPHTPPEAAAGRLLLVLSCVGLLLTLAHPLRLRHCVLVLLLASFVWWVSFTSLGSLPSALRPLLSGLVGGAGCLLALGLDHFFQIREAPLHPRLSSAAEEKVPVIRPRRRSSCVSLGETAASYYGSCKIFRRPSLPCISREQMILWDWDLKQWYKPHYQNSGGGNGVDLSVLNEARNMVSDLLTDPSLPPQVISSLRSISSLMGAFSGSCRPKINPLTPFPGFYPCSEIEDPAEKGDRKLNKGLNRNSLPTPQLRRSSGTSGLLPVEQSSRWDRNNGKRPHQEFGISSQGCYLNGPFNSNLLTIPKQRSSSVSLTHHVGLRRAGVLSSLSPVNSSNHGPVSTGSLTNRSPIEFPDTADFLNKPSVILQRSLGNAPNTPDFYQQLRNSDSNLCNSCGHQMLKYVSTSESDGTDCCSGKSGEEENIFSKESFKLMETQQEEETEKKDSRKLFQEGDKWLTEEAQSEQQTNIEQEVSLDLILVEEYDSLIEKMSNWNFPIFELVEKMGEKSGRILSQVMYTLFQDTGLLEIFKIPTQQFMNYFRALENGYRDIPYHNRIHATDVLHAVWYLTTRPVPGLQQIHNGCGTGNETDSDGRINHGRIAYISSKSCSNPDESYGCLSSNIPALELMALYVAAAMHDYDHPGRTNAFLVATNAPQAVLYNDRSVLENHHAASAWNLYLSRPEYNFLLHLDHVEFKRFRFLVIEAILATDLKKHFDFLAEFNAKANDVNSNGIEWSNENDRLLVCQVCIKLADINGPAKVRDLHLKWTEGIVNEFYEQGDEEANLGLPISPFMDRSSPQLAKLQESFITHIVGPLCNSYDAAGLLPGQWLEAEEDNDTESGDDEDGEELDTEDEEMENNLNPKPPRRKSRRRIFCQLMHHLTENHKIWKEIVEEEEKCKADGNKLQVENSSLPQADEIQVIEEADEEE
T1 sequence (Q14432 whole entry): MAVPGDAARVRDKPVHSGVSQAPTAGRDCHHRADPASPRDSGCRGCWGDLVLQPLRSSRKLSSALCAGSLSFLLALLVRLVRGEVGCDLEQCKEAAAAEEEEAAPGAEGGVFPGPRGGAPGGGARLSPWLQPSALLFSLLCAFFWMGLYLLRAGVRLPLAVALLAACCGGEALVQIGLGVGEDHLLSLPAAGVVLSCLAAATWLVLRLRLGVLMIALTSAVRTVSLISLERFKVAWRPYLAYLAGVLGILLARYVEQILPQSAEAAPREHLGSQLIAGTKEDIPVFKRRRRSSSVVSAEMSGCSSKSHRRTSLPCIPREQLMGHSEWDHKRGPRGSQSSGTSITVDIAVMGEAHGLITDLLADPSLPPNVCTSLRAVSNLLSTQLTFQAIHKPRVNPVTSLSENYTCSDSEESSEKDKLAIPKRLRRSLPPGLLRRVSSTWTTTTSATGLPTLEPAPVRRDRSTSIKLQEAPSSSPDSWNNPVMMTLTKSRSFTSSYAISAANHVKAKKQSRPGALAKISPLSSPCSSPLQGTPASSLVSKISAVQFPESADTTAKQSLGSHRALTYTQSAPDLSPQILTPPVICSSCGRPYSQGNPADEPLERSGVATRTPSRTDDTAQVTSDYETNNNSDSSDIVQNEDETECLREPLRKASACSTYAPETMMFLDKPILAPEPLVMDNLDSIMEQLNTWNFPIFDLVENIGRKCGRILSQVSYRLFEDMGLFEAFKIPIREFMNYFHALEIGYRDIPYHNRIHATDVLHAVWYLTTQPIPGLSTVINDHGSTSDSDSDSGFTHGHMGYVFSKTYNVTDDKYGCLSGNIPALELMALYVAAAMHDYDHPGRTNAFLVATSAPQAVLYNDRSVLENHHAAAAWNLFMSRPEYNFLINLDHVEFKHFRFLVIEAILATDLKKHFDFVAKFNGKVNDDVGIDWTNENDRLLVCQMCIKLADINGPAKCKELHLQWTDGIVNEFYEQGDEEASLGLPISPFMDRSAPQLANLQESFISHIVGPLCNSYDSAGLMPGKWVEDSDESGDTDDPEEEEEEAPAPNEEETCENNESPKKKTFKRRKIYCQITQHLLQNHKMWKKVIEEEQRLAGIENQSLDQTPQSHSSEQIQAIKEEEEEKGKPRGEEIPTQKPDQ

IC50 [1]	IC50 (SK-MEL-3 (melanoma))	IC50 (IGR-37 (melanoma))	IC50 (human full length PDE3A)	IC50 (human full length PDE3B)	Compound
7.79 nM	15.2 nM	34.8 nM	240 nM	210 nM	O=C1CCC(c2ccc(-c3ccc(F)cc3)c(C(F)(F)F)c2)=NN1 [Example 128, 6-[4′-fluoro-2-(trifluoromethyl)[1,1′-biphenyl]-4-yl]-4,5-dihydropyridazin-3(2H)-one]
1.78 nM	3.64 nM	5.37 nM	73 nM	77 nM	O=C1CCC(c2ccc(-c3cnn(C(F)F)c3)c(C(F)(F)F)c2)=NN1 [Example 127, 6-{4-[1-(difluoromethyl)-1H-pyrazol-4-yl]-3-(trifluoromethyl)phenyl}-4,5-dihydropyridazin-3(2H)-one]
79.8 nM	> 100 nM	276 nM	–	> 1000 nM	O=C1CCC(c2ccc(N3CCOCC3)cc2)=NN1 [Example 123, 6-[4-(morpholin-4-yl)phenyl]-4,5-dihydropyridazin-3(2H)-one]
4.32 nM	8.73 nM	9.03 nM	89 nM	86 nM	O=C1CCC(c2ccc(NCC(O)C(F)(F)F)c(C(F)(F)F)c2)=NN1 (racemic) [Example 130, 6-[4-{[3,3,3-trifluoro-2-hydroxypropyl]amino}-3-(trifluoromethyl)phenyl]-4,5-dihydropyridazin-3(2H)-one (racemic)]
2.14 nM	4.58 nM	4.77 nM	120 nM	210 nM	COCCNc1ccc(C2=NNC(=O)CC2)cc1C(F)(F)F [Example 129, 6-{4-[(2-methoxyethyl)amino]-3-(trifluoromethyl)phenyl}-4,5-dihydropyridazin-3(2H)-one]
5.2 nM	718 nM	8.82 nM	159 nM	148 nM	O=C1CCC(c2ccc(N3CCC(F)(F)C3)c(C(F)(F)F)c2)=NN1 [Example 22, 6-[4-(3,3-Difluoropyrrolidin-1-yl)-3-(trifluoromethyl)phenyl]-4,5-dihydropyridazin-3(2H)-one]
4.79 nM	21.4 nM	–	110 nM	100 nM	Cc1cc(C2=NNC(=O)CC2)ccc1-c1ccc(F)cc1F [Example 106, 6-(2′,4′-difluoro-2-methyl[1,1′-biphenyl]-4-yl)-4,5-dihydropyridazin-3(2H)-one]
22.9 nM	39.8 nM	–	57 nM	50 nM	COc1ncccc1-c1ccc(C2=NNC(=O)CC2)cc1F [Example 70, 6-[3-fluoro-4-(2-methoxypyridin-3-yl)phenyl]-4,5-dihydropyridazin-3(2H)-one]
17.7 nM	36.2 nM	43.8 nM	620 nM	385 nM	O=C1CCC(c2ccc(-n3ccc(C(F)(F)F)n3)c(F)c2)=NN1 [Example 131, 6-{3-fluoro-4-[3-(trifluoromethyl)-1H-pyrazol-1-yl]phenyl}-4,5-dihydropyridazin-3(2H)-one]
> 100 nM	> 100 nM	–	330 nM	290 nM	Nc1ccccc1-c1ccc(C2=NNC(=O)CC2)cc1F [Example 66, 6-(2′-amino-2-fluoro[1,1′-biphenyl]-4-yl)-4,5-dihydropyridazin-3(2H)-one]
8.39 nM	42.9 nM	–	220 nM	170 nM	Cc1ccccc1-c1ccc(C2=NNC(=O)CC2)cc1C [Example 116, 6-(2,2′-dimethyl[1,1′-biphenyl]-4-yl)-4,5-dihydropyridazin-3(2H)-one]
16 nM	36.1 nM	55.1 nM	625 nM	335 nM	O=C1CCC(c2ccc(Cl)c(Cl)c2)=NN1 [Example 125, 6-(3,4-Dichlorophenyl)-4,5-dihydropyridazin-3(2H)-one]
39.7 nM	61.8 nM	–	560 nM	280 nM	O=C1CCC(c2ccc(-c3ccc(F)c(Cl)c3)c(F)c2)=NN1 [Example 83, 6-(3′-chloro-2,4′-difluoro[1,1′-biphenyl]-4-yl)-4,5-dihydropyridazin-3(2H)-one]
12.8 nM	16.9 nM	–	120 nM	76 nM	Nc1cccc(-c2ccc(C3=NNC(=O)CC3)cc2F)c1 [Example 65, 6-(3′-amino-2-fluoro[1,1′-biphenyl]-4-yl)-4,5-dihydropyridazin-3(2H)-one]
5.39 nM	10.5 nM	–	66 nM	73 nM	CCNc1ccc(C2=NNC(=O)CC2)cc1C(F)(F)F [Example 18, 6-[4-(Ethylamino)-3-(trifluoromethyl)phenyl]-4,5-dihydropyridazin-3(2H)-one]
5.34 nM	11.8 nM	–	180 nM	60 nM	Cc1ccc(F)cc1-c1ccc(C2=NNC(=O)CC2)cc1F [Example 57, 6-(2,5′-difluoro-2′-methyl[1,1′-biphenyl]-4-yl)-4,5-dihydropyridazin-3(2H)-one]
18.5 nM	37.8 nM	–	190 nM	380 nM	O=C1CCC(c2ccc(-c3cc(F)cc(F)c3)c(F)c2)=NN1 [Example 54, 6-(2,3′,5′-trifluoro[1,1′-biphenyl]-4-yl)-4,5-dihydropyridazin-3(2H)-one]
10.4 nM	13.7 nM	–	370 nM	310 nM	O=C1CCC(c2ccc(-c3ccoc3)c(F)c2)=NN1 [Example 45, 6-[3-fluoro-4-(furan-3-yl)phenyl]-4,5-dihydropyridazin-3(2H)-one]
18.9 nM	40.4 nM	–	240 nM	150 nM	Cc1cccc(-c2ccc(C3=NNC(=O)CC3)cc2F)c1C [Example 85, 6-(2-fluoro-2′,3′-dimethyl[1,1′-biphenyl]-4-yl)-4,5-dihydropyridazin-3(2H)-one]
51.4 nM	> 100 nM	–	540 nM	440 nM	CCc1ccccc1-c1ccc(C2=NNC(=O)CC2)cc1C [Example 117, 6-(2′-ethyl-2-methyl[1,1′-biphenyl]-4-yl)-4,5-dihydropyridazin-3(2H)-one]
3.82 nM	6.78 nM	–	68 nM	34 nM	O=C1CCC(c2ccc(-c3cccc(F)c3F)c(F)c2)=NN1 [Example 53, 6-(2,2′,3′-trifluoro[1,1′-biphenyl]-4-yl)-4,5-dihydropyridazin-3(2H)-one]
33 nM	> 100 nM	–	88 nM	91 nM	COc1cccc(-c2ccc(C3=NNC(=O)CC3)cc2C)c1 [Example 113, 6-(3′-methoxy-2-methyl[1,1′-biphenyl]-4-yl)-4,5-dihydropyridazin-3(2H)-one]
5.72 nM	14.5 nM	–	65 nM	67 nM	Cc1cc(C2=NNC(=O)CC2)ccc1-c1cccnc1 [Example 2, 6-[3-Methyl-4-(pyridin-3-yl)phenyl]-4,5-dihydropyridazin-3(2H)-one]
21.3 nM	65.7 nM	–	120 nM	39 nM	Cc1cc(C2=NNC(=O)CC2)ccc1-c1ccncc1 [Example 5, 6-[3-Methyl-4-(pyridin-4-yl)phenyl]-4,5-dihydropyridazin-3(2H)-one]
46.3 nM	> 100 nM	–	36 nM	53 nM	Cc1cc(C2=NNC(=O)CC2)ccc1-c1cccc(C(N)=O)c1 [Example 114, 2′-methyl-4′-(6-oxo-1,4,5,6-tetrahydropyridazin-3-yl)[1,1′-biphenyl]-3-carboxamide]
2.04 nM	4.53 nM	–	100 nM	80 nM	Cc1ccccc1-c1ccc(C2=NNC(=O)CC2)cc1F [Example 77, 6-(2-fluoro-2′-methyl[1,1′-biphenyl]-4-yl)-4,5-dihydropyridazin-3(2H)-one]
